# According to patent US20230285377A1, “KCNT1 INHIBITORS AND METHODS OF USE” (Praxis Precision Medicines, Inc., priority 2020, published 2023):
# Molecular target: KCNT1 (KNa1.1, Slack) (Homo sapiens (Human), UniProt Q5JUK3)
# Experiment: KCNT1-WT-Basal - Patch Clamp Assay
# Type: cell-based
# Conditions: tetracycline inducible HEK-TREX cell line; SyncroPatch 384PE automated patch clamp; step to 0 mV; room temperature
# Method: Inhibition of KCNT1 (KNa1.1, Slack) was evaluated using a tetracycline inducible cell line (HEK-TREX). Currents were recorded using the SyncroPatch 384PE automated, patch clamp system. Pulse generation and data collection were performed with PatchController384 V1.3.0 and DataController384 V1.2.1 (Nanion Technologies). The access resistance and apparent membrane capacitance were estimated using built-in protocols. Current were recorded in perforated patch mode (10 µM escin) from a population of cells. The cells were lifted, triturated, and resuspended at 800,000 cells/ml. The cells were allowed to recover in the cell hotel prior to experimentation. Currents were recorded at room temperature. The external solution contained the following (in mM): NaCl 105, NMDG 40, KC1 4, MgC12 1, CaC12 5 and HEPES 10 (pH = 7.4, Osmolarity ~300 mOsm). The extracellular solution was used as the wash, reference and compound delivery solution. The internal solution contained the following (in mM): NaCl 70, KF 70, KC1 10, EGTA 5, HEPES 5 and Escin 0.01 (pH = 7.2, Osmolarity ~295 mOsm). Escin is made at a 5 mM stock in water, aliquoted, and stored at -20° C. The compound plate was created at 2x concentrated in the extracellular solution. The compound was diluted to 1:2 when added to the recording well. The amount of DMSO in the extracellular solution was held constant at the level used for the highest tested concentration. A holding potential of -80 mV with a 100 ms step to 0 mV was used. Mean current was measured during the step to 0 mV. […] The average mean current from 3 sweeps was calculated and the % inhibition of each compound was calculated. The % Inhibition as a function of the compound concentration was fit with a Hill equation to derive IC50, slope, min and max parameters. If KCNT1 inhibition was less than 50% at the highest tested concentration or if an IC50 could not be calculated, then a percent inhibition was reported in place of the IC50.
# In this table, “A” indicates IC50 of less than or equal to 1 µM; “B” indicates inhibition of between 1 µM to 20 µM; and “C” indicates inhibition of greater than or equal to 20 µM.
# Chain of KCNT1 (KNa1.1, Slack) (Q5JUK3 whole entry): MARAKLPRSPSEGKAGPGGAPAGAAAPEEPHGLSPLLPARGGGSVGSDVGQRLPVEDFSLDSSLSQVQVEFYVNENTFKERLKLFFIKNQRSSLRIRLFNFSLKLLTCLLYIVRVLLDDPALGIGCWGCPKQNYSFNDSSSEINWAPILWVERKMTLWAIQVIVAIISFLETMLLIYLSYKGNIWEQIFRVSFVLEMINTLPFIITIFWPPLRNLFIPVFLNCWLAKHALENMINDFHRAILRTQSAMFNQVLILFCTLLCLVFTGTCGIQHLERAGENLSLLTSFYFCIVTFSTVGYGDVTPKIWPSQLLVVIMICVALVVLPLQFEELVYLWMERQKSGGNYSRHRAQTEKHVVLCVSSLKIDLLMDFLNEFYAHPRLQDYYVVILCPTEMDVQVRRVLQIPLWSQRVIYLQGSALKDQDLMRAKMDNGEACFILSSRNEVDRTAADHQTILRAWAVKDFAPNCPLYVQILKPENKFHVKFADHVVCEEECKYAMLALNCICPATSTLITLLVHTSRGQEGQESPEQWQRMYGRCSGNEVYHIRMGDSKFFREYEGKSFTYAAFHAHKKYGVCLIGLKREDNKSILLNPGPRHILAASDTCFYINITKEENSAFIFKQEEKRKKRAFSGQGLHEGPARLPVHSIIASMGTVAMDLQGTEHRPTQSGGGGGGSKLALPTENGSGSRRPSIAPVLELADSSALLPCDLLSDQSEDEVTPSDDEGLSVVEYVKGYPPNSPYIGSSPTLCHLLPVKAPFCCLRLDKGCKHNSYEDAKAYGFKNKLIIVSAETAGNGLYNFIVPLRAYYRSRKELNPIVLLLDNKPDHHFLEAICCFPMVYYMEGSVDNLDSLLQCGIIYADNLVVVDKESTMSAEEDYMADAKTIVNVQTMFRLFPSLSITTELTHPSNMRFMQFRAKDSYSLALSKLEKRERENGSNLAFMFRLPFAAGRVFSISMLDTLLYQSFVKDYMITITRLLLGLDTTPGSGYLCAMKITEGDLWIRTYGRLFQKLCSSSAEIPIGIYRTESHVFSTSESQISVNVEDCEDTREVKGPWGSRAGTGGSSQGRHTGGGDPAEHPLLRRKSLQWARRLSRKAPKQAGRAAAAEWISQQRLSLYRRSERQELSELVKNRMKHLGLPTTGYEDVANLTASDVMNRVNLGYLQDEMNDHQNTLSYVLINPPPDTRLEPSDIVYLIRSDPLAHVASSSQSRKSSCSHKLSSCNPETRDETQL
row,IC50 [nM],Compound
1,≤ 1000,"COc1cc(-c2nsc([C@H](C)NC(=O)c3cc(C(F)(F)F)nn3C)n2)ccn1 [Example 44, 2-methyl-N-[(1S)-1-[3-(2-methoxy-4-pyridyl)-1,2,4-thiadiazol-5-yl]ethyl]-5-(trifluoromethyl)pyrazole-3-carboxamide]"
2,1000 to 20000,"C[C@H](NC(=O)N1CCOc2ccccc21)c1cc(-c2ccnc(C(F)(F)F)c2)no1 (single isomer, unassigned) [Example 38]"
3,≤ 1000,"C[C@@H](NC(=O)c1ccnn1C1CCC1)c1cc(-c2ccnc(C(F)(F)F)c2)no1 (single isomer, unassigned) [Example 36]"
4,1000 to 20000,"C[C@@H](NC(=O)c1cc(C(F)(F)F)nn1C)c1cc(-c2ccnc(C(F)(F)F)c2)no1 (single isomer, unassigned) [Example 3]"
5,≤ 1000,"C[C@H](NC(=O)c1cccc(Cl)c1)c1nc(-c2ccnc(C3CC3)c2)ns1 (single isomer, unassigned) [Example 6]"
6,1000 to 20000,"C[C@@H](NC(=O)N1CCCCC1)c1cc(-c2ccnc(C(F)(F)F)c2)no1 (single isomer, unassigned) [Example 9]"
7,≥ 20000,"C[C@H](NC(=O)N1CCCCC1)c1cc(-c2ccnc(C(F)(F)F)c2)no1 (single isomer, unassigned) [Example 8]"
8,1000 to 20000,"C[C@@H](NC(=O)c1cccc(Cl)c1)c1cc(-c2ccnc(C(F)(F)F)c2)no1 (single isomer, unassigned) [Example 20]"
9,1000 to 20000,"C[C@H](NC(=O)c1cccc(Cl)c1)c1cc(-c2ccnc(C3CC3)c2)no1 (single isomer, unassigned) [Example 18]"
10,1000 to 20000,"C[C@H](NC(=O)c1cc(C(F)(F)F)nn1C)c1nc(N2CCCCC2)ns1 [Example 46, 2-methyl-N-[(1S)-1-[3-(1-piperidyl)-1,2,4-thiadiazol-5-yl]ethyl]-5-(trifluoromethyl)pyrazole-3-carboxamide]"
11,1000 to 20000,"Cc1cc(-c2nsc([C@@H](C)NC(=O)c3cc(C(F)(F)F)nn3C)n2)ccn1 [Example 41, (R)-1-methyl-N-(1-(3-(2-methylpyridin-4-yl)-1,2,4-thiadiazol-5-yl)ethyl)-3-(trifluoromethyl)-1H-pyrazole-5-carboxamide]"
12,≤ 1000,"COc1cc(-c2nsc([C@@H](C)NC(=O)c3cc(C(F)(F)F)nn3C)n2)ccn1 [Example 45, 2-methyl-N-[(1R)-1-[3-(2-methoxy-4-pyridyl)-1,2,4-thiadiazol-5-yl]ethyl]-5-(trifluoromethyl)pyrazole-3-carboxamide]"
13,≥ 20000,"C[C@@H](NC(=O)Cc1ccccc1)c1cc(-c2ccnc(C(F)(F)F)c2)no1 (single isomer, unassigned) [Example 28]"
14,≤ 1000,"CC(C)c1cc(C(=O)N[C@@H](C)c2cc(-c3ccnc(C(F)(F)F)c3)no2)n(C)n1 (single isomer, unassigned) [Example 25, (N)-3-isopropyl-1-methyl-N-(1-(3-(2-(trifluoromethyl)pyridin-4-yl)isoxazol-5-yl)ethyl)-1H pyrazole-5-carboxamide]"
15,≤ 1000,"C[C@H](NC(=O)c1cc(C(F)(F)F)nn1C)c1cc(-c2ccnc(C(F)(F)F)c2)no1 (single isomer, unassigned) [Example 2]"
16,1000 to 20000,"C[C@@H](NC(=O)c1cccc(C(F)(F)F)c1)c1cc(-c2ccnc(C(F)(F)F)c2)no1 (single isomer, unassigned) [Example 33]"
17,≤ 1000,"C[C@@H](NC(=O)c1cc(C(F)(F)F)nn1C)c1nc(-c2ccnc(C(F)(F)F)c2)ns1 (single isomer, unassigned) [Example 10]"
18,≤ 1000,"C[C@H](NC(=O)c1cc(C(F)(F)F)nn1C)c1nc(-c2ccnc(C(F)(F)F)c2)ns1 (single isomer, unassigned) [Example 11]"
19,1000 to 20000,"C[C@H](NC(=O)C1CCCCC1)c1cc(-c2ccnc(C(F)(F)F)c2)no1 (single isomer, unassigned) [Example 27]"
20,≤ 1000,"C[C@@H](NC(=O)c1cccc(Cl)c1)c1cc(-c2ccnc(C3CC3)c2)no1 (single isomer, unassigned) [Example 19]"
21,1000 to 20000,"CC(C)c1cc(C(=O)N[C@H](C)c2cc(-c3ccnc(C(F)(F)F)c3)no2)n(C)n1 (single isomer, unassigned) [Example 24]"
22,1000 to 20000,"C[C@H](NC(=O)Cc1ccccc1)c1cc(-c2ccnc(C(F)(F)F)c2)no1 (single isomer, unassigned) [Example 29]"

row,IC50 [nM],Compound
1,1000 to 20000,"COCc1cc(-c2nsc([C@H](C)NC(=O)c3cc(C(F)(F)F)nn3C)n2)ccn1 (single isomer, unassigned) [Example 42]"
2,1000 to 20000,"COCc1cc(-c2nsc([C@@H](C)NC(=O)c3cc(C(F)(F)F)nn3C)n2)ccn1 (single isomer, unassigned) [Example 43]"
3,1000 to 20000,"C[C@@H](NC(=O)c1cc(C(F)F)nn1C)c1cc(-c2ccnc(C(F)(F)F)c2)no1 (single isomer, unassigned) [Example 30]"
4,≤ 1000,"C[C@@H](NC(=O)c1cc(C(F)(F)F)nn1C)c1cc(-c2ccnc(C3CC3)c2)no1 (single isomer, unassigned) [Example 16]"
5,1000 to 20000,"C[C@H](NC(=O)c1ccccc1)c1cc(-c2ccnc(C(F)(F)F)c2)no1 (single isomer, unassigned) [Example 23]"
6,1000 to 20000,"C[C@H](NC(=O)c1ccnn1C1CCC1)c1cc(-c2ccnc(C(F)(F)F)c2)no1 (single isomer, unassigned) [Example 37]"
7,≤ 1000,"C[C@H](NC(=O)c1ccccc1)c1cc(-c2ccnc(C3CC3)c2)no1 (single isomer, unassigned) [Example 14]"
8,≤ 1000,"C[C@H](NC(=O)c1cc(C(F)F)nn1C)c1cc(-c2ccnc(C(F)(F)F)c2)no1 (single isomer, unassigned) [Example 31]"
9,≤ 1000,"C[C@@H](NC(=O)N1CCCc2ccccc21)c1cc(-c2ccnc(C(F)(F)F)c2)no1 (single isomer, unassigned) [Example 35]"
10,≤ 1000,"C[C@H](NC(=O)c1cc(C(F)(F)F)nn1C)c1nc(-c2ccnc(C3CC3)c2)ns1 (single isomer, unassigned) [Example 12]"
11,1000 to 20000,"C[C@H](NC(=O)N1CCCc2ccccc21)c1cc(-c2ccnc(C(F)(F)F)c2)no1 (single isomer, unassigned) [Example 34]"
12,1000 to 20000,"Cc1cc(-c2nsc([C@H](C)NC(=O)c3cc(C(F)(F)F)nn3C)n2)ccn1 [Example 40, 2-methyl-N-[(1S)-1-[3-(2-methyl-4-pyridyl)-1,2,4-thiadiazol-5-yl]ethyl]-5-(trifluoromethyl)pyrazole-3-carboxamide]"
13,1000 to 20000,"C[C@@H](NC(=O)c1cc(C(F)(F)F)nn1C)c1nc(N2CCCCC2)ns1 [Example 47, 2-methyl-N-[(1R)-1-[3-(1-piperidyl)-1,2,4-thiadiazol-5-yl]ethyl]-5-(trifluoromethyl)pyrazole-3-carboxamide]"
14,≤ 1000,"C[C@@H](NC(=O)N1CCOc2ccccc21)c1cc(-c2ccnc(C(F)(F)F)c2)no1 (single isomer, unassigned) [Example 39]"
15,≥ 20000,"C[C@@H](NC(=O)C1CCCCC1)c1cc(-c2ccnc(C(F)(F)F)c2)no1 (single isomer, unassigned) [Example 26]"
16,≤ 1000,"C[C@@H](NC(=O)c1cccc(Cl)c1)c1nc(-c2ccnc(C3CC3)c2)ns1 (single isomer, unassigned) [Example 7]"
17,≤ 1000,"C[C@H](NC(=O)c1cccc(C(F)(F)F)c1)c1cc(-c2ccnc(C(F)(F)F)c2)no1 (single isomer, unassigned) [Example 32]"
18,≤ 1000,"C[C@H](NC(=O)c1cccc(Cl)c1)c1cc(-c2ccnc(C(F)(F)F)c2)no1 (single isomer, unassigned) [Example 21]"
19,≤ 1000,"C[C@@H](NC(=O)c1cc(C(F)(F)F)nn1C)c1nc(-c2ccnc(C3CC3)c2)ns1 (single isomer, unassigned) [Example 13]"
20,1000 to 20000,"C[C@@H](NC(=O)c1ccccc1)c1cc(-c2ccnc(C3CC3)c2)no1 (single isomer, unassigned) [Example 15]"
21,1000 to 20000,"C[C@H](NC(=O)c1cc(C(F)(F)F)nn1C)c1cc(-c2ccnc(C3CC3)c2)no1 (single isomer, unassigned) [Example 17]"

row,Compound,IC50 [nM]
1,"C[C@@H](NC(=O)c1ccccc1)c1nc(-c2ccnc(C3CC3)c2)ns1 [Example 5, (R)-N-(1-(3-(2-cyclopropylpyridin-4-yl)-1,2,4-thiadiazol-5-yl)ethyl)benzamide]",≤ 1000
2,"C[C@H](NC(=O)c1ccccc1)c1nc(-c2ccnc(C3CC3)c2)ns1 [Example 4, (S)-N-(1-(3-(2-cyclopropylpyridin-4-yl)-1,2,4-thiadiazol-5-yl)ethyl)benzamide]",≤ 1000
